Source: patent US5242937A, “Topically active ocular thiadiazole sulfonamide carbonic anhydrase inhibitors” (Research Corporation Technologies, Inc., priority 1990, dated 1993)
Converted amounts (≈) assume the structure as drawn.

Assays:
[1] = tested on: intraocular pressure (IOP); experiment: Ocular hypotensive effects following topical administration (Table 2); format: in vivo, New Zealand white rabbits; conditions: IOP lowering; for Maximum Topical Effect: one eye, contralateral eye vehicle
Protocol: B.2 Ocular Hypotensive Effects Following Topical Administration
IOP was determined using rabbits familiarized with the Alcon pneumotonometric measurement employed. Drugs were dissolved or suspended in 0.9% saline or a 1% hydroxypropylmethyl-cellulose gel and instilled into one eye. The contralateral eye received the vehicle only, thereby serving as a control. Initial screening was accomplished using measurements every 15-30 minutes for 5-6 hours. Statistical analysis wa then performed using Student's t-test for paired data (two-tailed).

[2] = Corneal permeability rate constant (kin) across freshly excised bovine corneas in vitro; accession rate; format: in vitro ADME; conditions: for kin (corneal permeability rate constant): excised bovine corneas, in vitro
Protocol: (§1) In these examples the general methodology for testing these compounds is as follows. Melting point (M.P.) is assessed using a standard Fisher-Johns apparatus. Quantitative analysis of drug concentrations is carried out using either an enzymatic assay or by high performance liquid chromatography (HPLC). The enzymatic assay is a modification of Maren's micromethod, J. Pharmacol. Exp. Ther., 130:26-29, 1960. Essentially, a reaction volume of 0.8 mL, containing a carbonate/bicarbonate buffer, phenol red, purified carbonic anhydrase, and inhibitor is maintained at 0° degrees and saturation with CO2 by constant bubbling. The time required for acidification to a color change endpoint is monitored as the dependent variable. Carbonic anhydrase inhibitors increase reaction time in proportion to their concentrations over a useful range. The HPLC analysis is performed using reverse phase chromatography (C18) and gradient elution. At a flow rate of 2mL/min, initial mobile phase composition is 95% A, 5% B, where A is 50 mM phosphate buffer, pH=2, and B is CH3 OH. This composition is altered in a linear fashion over 12 minutes to a final composition of 5:95, A:B, v:v. Capacity factor (k') is determined using the relationship k'=([…] -Vo)/Vo where Ve is the elution volume of the analyte of interest and Vo is the void volume of the column. HPLC analysis using photodiode array UV-visible detection (400-200 nm) is also used to assess purity and acquire spectral information.
(§2) Corneal permeability rate constants (kin) are determined in an in vitro system. Freshly excised bovine corneas are placed on 8 mm tissue culture wells (epithelial surface down) filled with tissue culture medium containing test compound. The well formed by the curvature of the cornea is filled with drug-free medium. Samples of medium are taken from the endothelial side for determination of drug concentrations. The rate constant for drug appearance is kin. Enzyme inhibition is assessed by determination of KI versus carbonic anhydrase II using the enzymatic method. Accession rate is the product of kin and maximum buffer solubility. This is a useful estimate of delivery rate of drug to the anterior chamber of the eye following topical administration.

[3] = Solubility in pH=7.4 phosphate buffer (saturated solutions); format: physicochemical; conditions: aqueous buffer
Protocol: as §1
Solubility is determined by preparing saturated solutions of test compounds in pH=7.4 phosphate buffer followed by analysis of the solution for compound concentration.

carbonic anhydrase II = carbonic anhydrase II (Homo sapiens, UniProt P00918); experiment: Enzyme inhibition, KI versus carbonic anhydrase II (enzymatic micromethod); format: biochemical; conditions: 0°
Protocol: as §1, with “Carbonic anhydrase inhibitors increase reaction time in proportion to their concentrations over a useful range.” left out
as §2, with “solubility.” for “solubility. This is a useful estimate of delivery rate of drug to the anterior chamber of the eye following topical administration.”

[4] = Partition coefficients (PC), organic solvent : pH=7.4 phosphate buffer; format: physicochemical; conditions: for PC (CHCl3 : buffer): chloroform : pH=7.4 phosphate buffer; for PC (ether: buffer): diethyl ether : pH=7.4 phosphate buffer
Protocol: as §1
Partition coefficients (PC) are determined by dissolving test compound in pH=7.4 phosphate buffer (saturated with the appropriate organic solvent) or organic solvent (diethyl ether or chloroform) saturated with buffer. Equal volumes of organic and aqueous solutions are added to test tubes which are then capped and mixed by inversion until equilibrium is achieved. The ratio of drug concentration organic: aqueous is the partition coefficient.

[5] = topical CAI, IOP lowering; cited from earlier work
[6] = tested on: intraocular pressure (IOP); experiment: Ocular hypotensive effects following systemic administration (Table 1); format: in vivo, New Zealand albino rabbits; conditions: subcutaneous, 225 μmol in corn oil, mean (S.D.)
Protocol: B.1 Ocular Hypotensive Effects Following systemic Administration
Compounds are dissolved in corn oil and injected subcutaneously into New Zealand albino rabbits. […] Injection time is defined as t=0. […] Values shown are IOP in mm Hg represented as the mean (S.D.) of n replications. Data are analyzed using Student's t-test for unpaired data. For time points marked with asterisks, p<0.05, which is taken to indicate a difference from vehicle treated controls.

[7] = oral administration; cited from earlier work

SMILES	Duration [1] [h]	Time to Peak effect [1] [min]	Maximum Topical Effect [1]	accession rate [2] [µM/h]	kin (corneal permeability rate constant) [2] [h⁻¹]	solubility [3] [mM]	Ki (carbonic anhydrase II) [nM]	PC (CHCl3 : buffer) [4]	other results
CCOC(=O)CCCCC(=O)Nc1nnc(S(N)(=O)=O)s1 [Compound 8, ethyladipoylazolamide]	2	30	approx. -1.0 mm Hg	–	–	–	–	–	–
NS(=O)(=O)c1nnc(N2C(=O)C(O)C(O)C2=O)s1 (stereo not drawn) [Example 4, Dihydroxysuccinimidazolamide]	≥ 6	60	-4.0 ± 0.7 mm Hg	≤ 21	3e-05	> 700	8	–	–
CCOC(=O)CCCCC(=O)Nc1nnc(S(N)(=O)=O)s1 [Example 7]	–	–	–	26	0.0512	0.2 (≈ 67.3 µg/mL)	–	3.03	Ki (carbonic anhydrase II; unit inferred): 60 nM
Nc1ccc2nc(S(N)(=O)=O)sc2c1 [aminozolamide]	–	–	–	–	–	–	–	–	effectiveness in clinical trial [5]: partially effective in clinical trial
CCOC(=O)C(=O)Nc1nnc(S(N)(=O)=O)s1 [Example 5, Ethyloxaloylazolamide]	≥ 5	75	-3.0 ± 0.7 mm Hg	309	–	–	32	0.23	IOP ([6]; t=0 min): 18.4(1.9) mm Hg; IOP ([6]; t=20 min): 17.5(2.1) mm Hg; IOP ([6]; t=45 min, * p<0.05 vs vehicle): 15.0(2.6) mm Hg; IOP ([6]; t=60 min, * p<0.05 vs vehicle): 14.5(2.2) mm Hg; IOP ([6]; t=75 min, * p<0.05 vs vehicle): 14.6(5.1) mm Hg; IOP ([6]; t=90 min, * p<0.05 vs vehicle): 17.8(1.7) mm Hg; IOP ([6]; t=110 min, * p<0.05 vs vehicle): 17.3(2.2) mm Hg; IOP ([6]; t=150 min, * p<0.05 vs vehicle): 18.3(1.3) mm Hg; PC (ether: buffer) [4]: 0.3; solubility ([3]; unit nm [sic]): 91 mM (≈ 25500 µg/mL)
NS(=O)(=O)c1nnc(N2C(=O)CCC2=O)s1 [Example 2, Succinylimidazolamide]	2	30	-2.3 ± 1.7 mm Hg	21	0.0021	10 (≈ 2620 µg/mL)	–	–	–
CCOC(=O)CCC(=O)Nc1nnc(S(N)(=O)=O)s1 [Example 6, Ethylsuccinylazolamide]	–	–	–	91	0.0155	5.8 (≈ 1790 µg/mL)	–	1.24	IOP ([6]; t=0 min): 18.3(1.0) mm Hg; IOP ([6]; t=20 min): 17.5(2.0) mm Hg; IOP ([6]; t=45 min, * p<0.05 vs vehicle): 15.4(2.1) mm Hg; IOP ([6]; t=60 min, * p<0.05 vs vehicle): 13.7(1.6) mm Hg; IOP ([6]; t=75 min, * p<0.05 vs vehicle): 12.4(1.9) mm Hg; IOP ([6]; t=90 min, * p<0.05 vs vehicle): 15.1(2.0) mm Hg; IOP ([6]; t=110 min, * p<0.05 vs vehicle): 15.0(1.8) mm Hg; IOP ([6]; t=150 min, * p<0.05 vs vehicle): 16.6(1.6) mm Hg; PC (ether: buffer) [4]: 0.35
NS(=O)(=O)c1nnc(NC(=O)CCCCC(=O)O)s1 [Example 8]	–	–	–	–	–	0.5 (≈ 154 µg/mL)	–	–	–
NS(=O)(=O)c1nnc(N2C(=O)C=CC2=O)s1 [Example 3, Maleimidiazolamide]	3	60	-2.0 ± 0.5 mm Hg	10.8	0.0108	1 (≈ 260 µg/mL)	12	–	–
CC(=O)Nc1nnc(S(N)(=O)=O)s1 [acetazolamide, 2-acetylamino-1,3,4-thiadiazole-5-sulfonamide]	–	–	–	–	–	–	–	–	decrease of IOP [7]: shown to decrease IOP following oral administration
